From ChEMBL document CHEMBL3407433, “A high-throughput screen reveals new small-molecule activators and inhibitors of pantothenate kinases” (J Med Chem, 2015)

Tests used:
[1] = biological target: T1, Pantothenate kinase 3 (Homo sapiens, UniProt Q9H999); test: Inhibition of Pank3 (unknown origin) by Kinase Glo HTS assay
Target sequence in this assay (Q9H999 whole entry): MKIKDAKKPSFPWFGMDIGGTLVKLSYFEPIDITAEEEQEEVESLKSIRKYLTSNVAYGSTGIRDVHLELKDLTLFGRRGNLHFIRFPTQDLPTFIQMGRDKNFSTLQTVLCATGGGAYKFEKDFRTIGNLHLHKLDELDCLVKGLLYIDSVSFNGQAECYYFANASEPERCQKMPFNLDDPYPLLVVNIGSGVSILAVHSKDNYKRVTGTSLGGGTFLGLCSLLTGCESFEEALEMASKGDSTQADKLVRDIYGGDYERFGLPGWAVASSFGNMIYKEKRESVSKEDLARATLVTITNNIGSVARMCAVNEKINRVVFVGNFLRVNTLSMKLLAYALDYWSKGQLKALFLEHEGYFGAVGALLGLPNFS

[2] = biological target: T2, Pantothenate kinase 1 (Homo sapiens, UniProt Q8TE04); test: Inhibition of Pank1beta (unknown origin) by Kinase Glo HTS assay
[3] = biological target: T1, Pantothenate kinase 3; test: Activation of Pank3 (unknown origin) by Kinase Glo HTS assay
Target sequence in this assay (Q9H999 whole entry): as above

[4] = biological target: T1, Pantothenate kinase 3
Target sequence in this assay (Q9H999 whole entry, looked up): as the sequence (Q9H999 whole entry) above
Description: Binding affinity to purified human Pank3 assessed as thermal stabilization by thermal shift assay in presence of 2 mM ATP/Mg2+

[5] = biological target: T2, Pantothenate kinase 1; test: Inhibition of purified human Pank1beta using d-[1-14C]pantothenate as substrate after 10 mins by radiochemical enzyme assay
[6] = biological target: T1, Pantothenate kinase 3; test: Inhibition of purified human Pank3 using d-[1-14C]pantothenate as substrate after 10 mins by radiochemical enzyme assay
Target sequence in this assay (Q9H999 whole entry): as above

[7] = biological target: T3, Pantothenate kinase 2, mitochondrial (Homo sapiens, UniProt Q9BZ23); test: Inhibition of purified human Pank2 using d-[1-14C]pantothenate as substrate after 10 mins by radiochemical enzyme assay
T3 sequence (Q9BZ23 whole entry): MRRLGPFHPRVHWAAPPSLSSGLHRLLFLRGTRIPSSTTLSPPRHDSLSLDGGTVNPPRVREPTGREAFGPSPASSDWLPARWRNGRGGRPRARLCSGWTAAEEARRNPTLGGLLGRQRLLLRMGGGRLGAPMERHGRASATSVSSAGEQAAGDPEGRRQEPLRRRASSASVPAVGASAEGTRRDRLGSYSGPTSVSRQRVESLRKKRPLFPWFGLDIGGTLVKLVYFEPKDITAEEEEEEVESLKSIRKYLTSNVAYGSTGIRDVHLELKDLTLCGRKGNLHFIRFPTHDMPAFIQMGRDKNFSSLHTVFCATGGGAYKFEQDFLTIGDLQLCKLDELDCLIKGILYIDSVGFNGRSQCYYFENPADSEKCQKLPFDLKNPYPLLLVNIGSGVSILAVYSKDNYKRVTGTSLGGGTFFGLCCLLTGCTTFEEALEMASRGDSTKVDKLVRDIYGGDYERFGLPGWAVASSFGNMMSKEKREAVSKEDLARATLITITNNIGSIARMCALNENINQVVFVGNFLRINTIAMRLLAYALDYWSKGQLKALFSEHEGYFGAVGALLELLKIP

T2 sequence (Q8TE04 whole entry): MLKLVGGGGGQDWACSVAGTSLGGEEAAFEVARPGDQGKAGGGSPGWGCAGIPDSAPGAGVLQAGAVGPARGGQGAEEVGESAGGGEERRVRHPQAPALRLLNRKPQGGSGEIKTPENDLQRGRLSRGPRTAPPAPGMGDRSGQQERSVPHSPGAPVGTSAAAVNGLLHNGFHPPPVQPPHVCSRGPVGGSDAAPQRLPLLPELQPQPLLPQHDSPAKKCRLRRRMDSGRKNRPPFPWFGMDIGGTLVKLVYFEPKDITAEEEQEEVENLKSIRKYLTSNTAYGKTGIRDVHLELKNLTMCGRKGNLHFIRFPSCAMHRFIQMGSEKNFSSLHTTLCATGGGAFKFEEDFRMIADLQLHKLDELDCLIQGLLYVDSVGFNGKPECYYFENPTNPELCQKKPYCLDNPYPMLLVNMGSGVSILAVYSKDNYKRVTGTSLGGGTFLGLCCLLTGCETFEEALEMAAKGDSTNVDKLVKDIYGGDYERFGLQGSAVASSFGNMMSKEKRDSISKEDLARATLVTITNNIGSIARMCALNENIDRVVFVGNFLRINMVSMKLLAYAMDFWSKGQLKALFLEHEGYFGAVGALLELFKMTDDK

SMILES | IC50 [1] | IC50 [2] | also measured
Cc1nc2c3cccnc3nn2c(C)c1CCC(=O)NCC1CCCCC1 | 40900 nM | 1220 nM | –
Cc1nc2c3cccnc3nn2c(C)c1CCC(=O)NC1CCCCC1 | > 56000 nM | 13600 nM | –
Cc1nc2c3cccnc3nn2c(C)c1CCC(=O)Nc1cccc(F)c1 | 620 nM | 240 nM | –
CC(C)c1ccc(NC(=O)CCc2nc(O)c3c4c(sc3n2)CCC4)cc1 | 120 nM | – | –
CC(C(=O)Nc1cc(Cl)ccc1Cl)N1CCC(C(=O)NCc2ccccc2)CC1 (stereo not drawn) | – | – | EC50 [3]: 1720 nM
Cc1nc2c3cccnc3nn2c(C)c1CCC(=O)NCc1ccc(F)cc1 | > 56000 nM | > 56000 nM | –
Cc1nc2c3cccnc3nn2c(C)c1CCC(=O)Nc1cccc(C(F)(F)F)c1 | 830 nM | 190 nM | –
Cc1ccc(NC(=O)CCc2c(C)nc3c4cccnc4nn3c2C)cc1 | 25600 nM | 11200 nM | –
Cc1nc2c3cccnc3nn2c(C)c1CCC(=O)N(C)c1ccccc1 | > 56000 nM | > 56000 nM | –
COc1cccc(CNC(=O)CCc2c(C)nc3c4cccnc4nn3c2C)c1 | > 56000 nM | > 56000 nM | –
CC(C)CCNC(=O)c1csc(-c2cccc(Cl)c2Cl)n1 | 2450 nM | – | –
Cc1ccc(NC(=O)N2CCN(c3ccccc3F)CC2)c(C)c1 | – | – | EC50 [3]: 2410 nM
Cc1nc2c3cccnc3nn2c(C)c1CCC(=O)Nc1ccccc1F | 13600 nM | 550 nM | –
COc1ccccc1NC(=O)CCc1c(C)nc2c3cccnc3nn2c1C | > 56000 nM | > 56000 nM | –
Cc1nc2c3cccnc3nn2c(C)c1CCC(=O)Nc1ccc(F)cc1 | > 56000 nM | > 56000 nM | –
COc1cccc(NC(=O)CCc2c(C)nc3c4cccnc4nn3c2C)c1 | 1640 nM | 280 nM | –
Cc1nc2c3cccnc3nn2c(C)c1CCC(=O)Nc1ccccc1 | 24500 nM | 850 nM | –
COC(=O)c1cccc(NC(=O)CCc2c(C)nc3c4cccnc4nn3c2C)c1 | > 56000 nM | > 56000 nM | –
COc1ccc(NC(=O)CCc2c(C)nc3c4cccnc4nn3c2C)cc1 | 11300 nM | 6690 nM | –
CCN(CC)c1ccc(CNc2nn[nH]n2)cc1 | – | – | EC50 [3]: 3430 nM
Cc1nc2c3cccnc3nn2c(C)c1CCC(=O)NCc1cccc(F)c1 | 10000 nM | 15800 nM | –
Cc1cccc(NC(=O)CCc2c(C)nc3c4cccnc4nn3c2C)c1 | 3840 nM | 1570 nM | –
O=C(Cc1ccc(F)cc1)N1CCN(c2nc3c(Cl)cccc3s2)CC1 | – | – | EC50 [3]: 1510 nM
CSc1ccc(NC(=O)CCc2c(C)nc3c4cccnc4nn3c2C)cc1 | 10500 nM | 3240 nM | –
COc1ccc(CNC(=O)CCc2c(C)nc3c4cccnc4nn3c2C)cc1 | 25800 nM | 14700 nM | –
CC(=O)Nc1ccc(NC(=O)CCc2c(C)nc3c4cccnc4nn3c2C)cc1 | 350 nM | 640 nM | –
CCS(=O)(=O)Nc1ccc(C(=O)NC2CC3CCC2C3)cc1 (stereo not drawn) | 180 nM | – | –
CSc1cccc(NC(=O)CCc2c(C)nc3c4cccnc4nn3c2C)c1 | 360 nM | 140 nM | Kapp [4]: 0.3 µM; IC50 [5]: 70 nM; IC50 [6]: 25 nM; IC50 [7]: 92 nM
